# Results published in EP3002287B1, “Thiochromeno[2,3-c]quinolin-12-one derivatives and their use as topoisomerase inhibitors” (National Defense Medical Center, priority 2014, dated 2016).
# What was measured:
# SW-620 = experiment: NCI in vitro 60-cell drug screen (SRB assay); assay type: cell-based; conditions: SW-620 (Colon cancer); 10^-5 molar concentration; 48 hours
# PC-3 [1] = experiment: NCI in vitro 60-cell drug screen (SRB assay); assay type: cell-based; conditions: PC-3 (Prostate cancer); 10^-5 molar concentration; 48 hours
# RPMI-8226 = experiment: NCI in vitro 60-cell drug screen (SRB assay); assay type: cell-based; conditions: RPMI-8226 (Leukemia); 10^-5 molar concentration; 48 hours
# SK-MEL-5 = experiment: NCI in vitro 60-cell drug screen (SRB assay); assay type: cell-based; conditions: SK-MEL-5 (Melanoma); 10^-5 molar concentration; 48 hours
# UO-31 = experiment: NCI in vitro 60-cell drug screen (SRB assay); assay type: cell-based; conditions: UO-31 (Renal cancer); 10^-5 molar concentration; 48 hours
# HOP-92 = experiment: NCI in vitro 60-cell drug screen (SRB assay); assay type: cell-based; conditions: HOP-92 (Non-small cell lung cancer); 10^-5 molar concentration; 48 hours
# IGROV1 = experiment: NCI in vitro 60-cell drug screen (SRB assay); assay type: cell-based; conditions: IGROV1 (Ovarian cancer); 10^-5 molar concentration; 48 hours
# SK-MEL-28 = experiment: NCI in vitro 60-cell drug screen (SRB assay); assay type: cell-based; conditions: SK-MEL-28 (Melanoma); 10^-5 molar concentration; 48 hours
# SF-268 = experiment: NCI in vitro 60-cell drug screen (SRB assay); assay type: cell-based; conditions: SF-268 (CNS cancer); 10^-5 molar concentration; 48 hours
# NCI-H226 = experiment: NCI in vitro 60-cell drug screen (SRB assay); assay type: cell-based; conditions: NCI-H226 (Non-small cell lung cancer); 10^-5 molar concentration; 48 hours
# NCI-H23 = experiment: NCI in vitro 60-cell drug screen (SRB assay); assay type: cell-based; conditions: NCI-H23 (Non-small cell lung cancer); 10^-5 molar concentration; 48 hours
# NCI/ADR-RES = experiment: NCI in vitro 60-cell drug screen (SRB assay); assay type: cell-based; conditions: NCI/ADR-RES (Ovarian cancer); 10^-5 molar concentration; 48 hours
# TK-10 = experiment: NCI in vitro 60-cell drug screen (SRB assay); assay type: cell-based; conditions: TK-10 (Renal cancer); 10^-5 molar concentration; 48 hours
# SF-295 = experiment: NCI in vitro 60-cell drug screen (SRB assay); assay type: cell-based; conditions: SF-295 (CNS cancer); 10^-5 molar concentration; 48 hours
# HT29 = experiment: NCI in vitro 60-cell drug screen (SRB assay); assay type: cell-based; conditions: HT29 (Colon cancer); 10^-5 molar concentration; 48 hours
# T-47D = experiment: NCI in vitro 60-cell drug screen (SRB assay); assay type: cell-based; conditions: T-47D (Breast cancer); 10^-5 molar concentration; 48 hours
# BT-549 = experiment: NCI in vitro 60-cell drug screen (SRB assay); assay type: cell-based; conditions: BT-549 (Breast cancer); 10^-5 molar concentration; 48 hours
# HL-60(TB) = experiment: NCI in vitro 60-cell drug screen (SRB assay); assay type: cell-based; conditions: HL-60(TB) (Leukemia); 10^-5 molar concentration; 48 hours
# MDA-MB-435 = experiment: NCI in vitro 60-cell drug screen (SRB assay); assay type: cell-based; conditions: MDA-MB-435 (Melanoma); 10^-5 molar concentration; 48 hours
# SK-OV-3 = experiment: NCI in vitro 60-cell drug screen (SRB assay); assay type: cell-based; conditions: SK-OV-3 (Ovarian cancer); 10^-5 molar concentration; 48 hours
# DU-145 [2] = experiment: NCI in vitro 60-cell drug screen (SRB assay); assay type: cell-based; conditions: DU-145 (Prostate cancer); 10^-5 molar concentration; 48 hours
# COLO 205 = experiment: NCI in vitro 60-cell drug screen (SRB assay); assay type: cell-based; conditions: COLO 205 (Colon cancer); 10^-5 molar concentration; 48 hours
# OVCAR-3 = experiment: NCI in vitro 60-cell drug screen (SRB assay); assay type: cell-based; conditions: OVCAR-3 (Ovarian cancer); 10^-5 molar concentration; 48 hours
# PC-3 [3] = experiment: MTT assay for cell cytotoxicity; assay type: cell-based, human; conditions: Homo sapiens, 72 h, at least three independent experiments, read-out: MTT assay (IC50 ± SD) PC-3
# DU-145 [4] = experiment: MTT assay for cell cytotoxicity; assay type: cell-based, human; conditions: Homo sapiens, 72 h, at least three independent experiments, read-out: MTT assay (IC50 ± SD) DU-145
# Outline: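 Seeded cells pre-incubated 24 h, then treated 72 h with 0.15–15 µM compound in RPMI-1640/5% FBS at 37 °C. MTT (1 mg/mL) added for 4 h, formazan dissolved in DMSO, absorbance at 560 nm; IC50 from mean of ≥3 independent experiments.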
# HCC-2998 = experiment: NCI in vitro 60-cell drug screen (SRB assay); assay type: cell-based; conditions: HCC-2998 (Colon cancer); 10^-5 molar concentration; 48 hours
# KM12 = experiment: NCI in vitro 60-cell drug screen (SRB assay); assay type: cell-based; conditions: KM12 (Colon cancer); 10^-5 molar concentration; 48 hours
# CAKI-1 = experiment: NCI in vitro 60-cell drug screen (SRB assay); assay type: cell-based; conditions: CAKI-1 (Renal cancer); 10^-5 molar concentration; 48 hours
SMILES,Growth percent (SW-620),Growth percent (PC-3 [1]),Growth percent (RPMI-8226),Growth percent (SK-MEL-5),Growth percent (UO-31),Growth percent (HOP-92),Growth percent (IGROV1),Growth percent (SK-MEL-28),Growth percent (SF-268),Growth percent (NCI-H226),Growth percent (NCI-H23),Growth percent (NCI/ADR-RES),Growth percent (TK-10),Growth percent (SF-295),Growth percent (HT29),Growth percent (T-47D),Growth percent (BT-549),Growth percent (HL-60(TB)),Growth percent (MDA-MB-435),Growth percent (DU-145 [2]),further results
"CN(C)c1nc2ccccc2c2c(=O)c3cc(Cl)ccc3sc12 [Compound 6, 10-Chloro-6-dimethylamino-12H-thiochromeno[2,3-c]quinolin-12-one]",105.18%,81.25%,98.20%,97.92%,73.81%,58.65%,68.16%,96.60%,77.86%,96.20%,77.00%,87.86%,64.75%,48.82%,87.73%,37.66%,92.96%,107.16%,107.18%,92.93%,Growth percent (SK-OV-3): 41.57%; Growth percent (COLO 205): 89.67%; Growth percent (OVCAR-3): 79.65%; IC50 (PC-3 [3]): > 15 µM; IC50 (DU-145 [4]): > 15 µM; Growth percent (HCC-2998): 97.20%; Growth percent (KM12): 96.40%
"O=C(O)c1c(Sc2ccc(Cl)cc2)c(O)nc2ccccc12 [Compound 2, 3-((4-Chlorophenyl)thio)-2-hydroxyquinoline-4-carboxylic acid]",96.92%,93.23%,98.10%,98.07%,68.91%,72.97%,103.57%,98.95%,113.60%,105.64%,92.61%,97.75%,118.09%,98.99%,101.41%,99.59%,124.20%,105.63%,102.02%,115.22%,Growth percent (CAKI-1): 76.26%; Growth percent (COLO 205): 108.65%; Growth percent (OVCAR-3): 121.29%; IC50 (PC-3 [3]): > 15 µM; IC50 (DU-145 [4]): > 15 µM; Growth percent (HCC-2998): 100.97%; Growth percent (KM12): 112.61%
"COc1nc2ccccc2c2c(=O)c3cc(Cl)ccc3sc12 [Compound 5, 10-Chloro-6-methoxy-12H-thiochromeno[2,3-c]quinolin-12-one]",103.05%,92.46%,102.86%,99.74%,74.69%,80.11%,71.44%,112.31%,94.12%,98.57%,80.14%,96.10%,113.30%,86.35%,102.69%,68.46%,94.85%,89.47%,103.83%,104.27%,Growth percent (SK-OV-3): 58.94%; Growth percent (COLO 205): 97.94%; Growth percent (OVCAR-3): 96.60%; IC50 (PC-3 [3]): 3.89 ± 0.54 µM; IC50 (DU-145 [4]): 10.8 ± 6.55 µM; Growth percent (HCC-2998): 104.67%; Growth percent (KM12): 98.03%
"O=c1c2cc(Cl)ccc2sc2c(O)nc3ccccc3c12 [Compound 4, 10-Chloro-6-hydroxy-12H-thiochromeno[2,3-c]quinolin-12-one]",101.39%,91.90%,100.99%,100.69%,76.44%,93.13%,78.35%,116.59%,95.26%,99.58%,88.96%,96.84%,113.26%,99.93%,96.78%,77.89%,85.17%,109.82%,103.18%,99.80%,Growth percent (SK-OV-3): 94.40%; Growth percent (COLO 205): 93.69%; Growth percent (OVCAR-3): 106.37%; IC50 (PC-3 [3]): 10.1 ± 1.81 µM; IC50 (DU-145 [4]): > 15 µM; Growth percent (HCC-2998): 101.48%; Growth percent (KM12): 102.45%
